Assays:
[1] = biological target: T1, SHV-5 β-lactamase (Klebsiella pneumoniae, UniProt P0A3M1); assay: β-lactamase enzyme inhibition, SHV-5; assay type: biochemical
T1 construct: made in house; host or cells: E. coli BL21(DE3)
Summary of the method: (§1)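 Native untagged enzymes expressed in E. coli BL21(DE3) and purified by cation exchange and gel filtration were preincubated with inhibitor for 15 min at 37° C. Hydrolysis was followed for 10 min: nitrocefin (100 μM final, 486 nm) for OXA-1 and p99 AmpC, imipenem (300 nm) for KPC-2, cefotaxime (260 nm) for SHV-5; IC50 from initial rates.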

[2] = system: P. aeruginosa Ps296 expressing VIM-2; assay: broth microdilution MIC, P. aeruginosa VIM-2; assay type: cell-based; conditions: Fixed Mero (meropenem) 4 μg/mL
Summary of the method: (§2)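 Compounds were titrated in 2-fold steps from 32 to 0.25 μg/mL in cation-adjusted Mueller Hinton broth with a β-lactam held at 4 μg/mL. Plates were inoculated by CLSI broth microdilution with strains pre-grown 3–5 h. After 16–20 h at 37 °C, MIC was read visually.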

[3] = system: K. pneumoniae 156319 expressing KPC-3; assay: broth microdilution MIC, K. pneumoniae KPC-3; assay type: cell-based; conditions: Fixed Mero (meropenem) 4 μg/mL
Summary of the method: as §2

[4] = biological target: T2, OXA-1 β-lactamase (Escherichia coli, UniProt P13661); assay: β-lactamase enzyme inhibition, OXA-1; assay type: biochemical; conditions: Nitrocefin 100 μM, 486 nm; 15 min at 37° C. preincubation; read-out: IC50 OXA-1 (Class D)
T2 construct: made in house; host or cells: E. coli BL21(DE3)
T2 sequence (P13661 26-276): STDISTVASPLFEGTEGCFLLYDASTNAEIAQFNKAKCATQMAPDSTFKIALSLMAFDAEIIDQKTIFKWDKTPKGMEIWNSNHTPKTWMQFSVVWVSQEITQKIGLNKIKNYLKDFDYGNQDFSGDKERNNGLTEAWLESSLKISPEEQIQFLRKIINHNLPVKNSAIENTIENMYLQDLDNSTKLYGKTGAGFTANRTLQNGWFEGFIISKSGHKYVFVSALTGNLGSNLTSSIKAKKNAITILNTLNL
Summary of the method: as §1

[5] = system: E. coli ESBL4 expressing CTX-M-15; assay: broth microdilution MIC, E. coli CTX-M-15; assay type: cell-based; conditions: Fixed CAZ (ceftazidime) 4 μg/mL
Summary of the method: as §2

[6] = system: K. pneumoniae A-1797 expressing KPC-2 and VIM-4; assay: broth microdilution MIC, K. pneumoniae KPC-2 and VIM-4; assay type: cell-based; conditions: Fixed Mero (meropenem) 4 μg/mL
Summary of the method: as §2

[7] = biological target: T3, p99 AmpC β-lactamase (Enterobacter cloacae, UniProt P05364); assay: β-lactamase enzyme inhibition, p99 AmpC; assay type: biochemical
T3 construct: made in house; host or cells: E. coli BL21(DE3)
T3 sequence (P05364 21-381): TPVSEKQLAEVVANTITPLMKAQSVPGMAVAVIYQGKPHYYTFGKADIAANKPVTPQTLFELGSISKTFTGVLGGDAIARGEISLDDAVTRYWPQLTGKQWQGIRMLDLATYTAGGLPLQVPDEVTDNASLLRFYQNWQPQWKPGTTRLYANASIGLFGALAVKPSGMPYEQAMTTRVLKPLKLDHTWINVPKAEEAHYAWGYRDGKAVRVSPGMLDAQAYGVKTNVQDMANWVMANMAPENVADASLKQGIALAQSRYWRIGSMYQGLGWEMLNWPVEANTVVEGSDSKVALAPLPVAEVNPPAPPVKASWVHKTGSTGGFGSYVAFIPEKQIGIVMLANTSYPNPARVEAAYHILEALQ
Summary of the method: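 Native untagged E. cloacae p99 AmpC was expressed in E. coli BL21(DE3) and purified by cation exchange and gel filtration. Enzyme was preincubated with inhibitor at 37°C for 15 min.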

[8] = system: S. aureus MSSA-7 producing penicillinase PC-1; assay: broth microdilution MIC, S. aureus PC-1; assay type: cell-based; conditions: Fixed Pip (piperacillin) 4 μg/mL
Text: To determine the ability of test compounds to potentiate the inhibition of the growth of bacterial strains that produce beta-lactamase enzymes, classic cell based broth microdilution MIC assays were employed. Six bacteria strains producing beta-lactamase enzymes were used: E. coli expressing the Class A Extended Spectrum Beta-Lactamase (ESBL) CTX-M-15, E. cloacae expressing the Class C P99, K. pneumoniae expressing the Class A carbapenemase KPC-3, P. aeruginosa expressing the Class B carbapenemase VIM-2, K pneumoniae expressing the class A carbapenemase KPC-2 and the class B carbapenemase VIM-4, and S. aureus producing the Class A penicillinase PC-1. The assay was conducted in Cation Adjusted Mueller Hinton Broth (CAMHB, BD #212322, BD Diagnostic Systems, Sparks, Md.). Bacteria strains were grown for 3-5 hours in CAMBH broth. Test compounds were added to a microtiter plate in 2-fold serial dilutions in CAMHB in a final concentration range of 32 μg/mL to 0.25 μg/ml. An overlay of CAMHB containing a Beta-lactam was added to the compounds at a final static concentration of 4 μg/ml. […] In addition to the titration of test compounds the MICs of a panel of control beta-lactams is also tested to ensure the strains are behaving consistently from test to test. Once the test compound and antibiotics are added the plates can be inoculated according to CLSI broth microdilution method. After inoculation the plates are incubated for 16-20 hours at 37° C., then the Minimal Inhibitory Concentration (MIC) of the test compound is determined visually.
Using the methodology described above, examples of the current invention were evaluated for their ability to inhibit the growth of β-lactamase-producing bacteria in the presence of a β-lactam antibiotic.
Representative results are shown in Table 4 where A represents an MIC of the fixed β-lactam antibiotic in the presence of >32 µg/mL of a β-lactamase inhibitor of exemplary compounds, B represents the MIC in the presence of between 8 and 32 µg/mL of a β-lactamase inhibitor of exemplary compounds, and C represents the MIC in the presence of ≤4 µg/mL of a β-lactamase inhibitor of exemplary compounds. NT=Not Tested.

[9] = biological target: T4, KPC-2 β-lactamase (Klebsiella pneumoniae, UniProt Q9F663); assay: β-lactamase enzyme inhibition, KPC-2; assay type: biochemical; conditions: imipenem substrate, 300 nm; 15 min at 37° C. preincubation; read-out: IC50 KPC-2 (Class A)
T4 construct: made in house; host or cells: E. coli BL21(DE3)
T4 sequence (Q9F663 25-293, looked up): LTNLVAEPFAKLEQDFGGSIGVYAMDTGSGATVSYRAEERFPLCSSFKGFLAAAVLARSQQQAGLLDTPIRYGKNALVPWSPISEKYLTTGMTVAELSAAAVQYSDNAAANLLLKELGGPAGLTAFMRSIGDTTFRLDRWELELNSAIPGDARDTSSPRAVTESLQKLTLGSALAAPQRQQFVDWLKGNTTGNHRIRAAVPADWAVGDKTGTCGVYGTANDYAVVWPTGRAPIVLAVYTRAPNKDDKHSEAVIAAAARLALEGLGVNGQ
Summary of the method: as §1

[10] = biological target: T5, VIM-2 metallo β-lactamase (Pseudomonas aeruginosa, UniProt Q9K2N0); assay: β-lactamase enzyme inhibition, VIM-2; assay type: biochemical; conditions: Nitrocefin 100 μM, 486 nm; 15 min at 37° C. preincubation; read-out: IC50 VIM-2 (Class B)
T5 construct: made in house; host or cells: E. coli BL21(DE3)
Summary of the method: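 VIM-2 purified by Q sepharose anion exchange (50 mM Hepes pH 7.5, 0-600 mM NaCl gradient, two runs, >90% purity). Enzyme preincubated with inhibitor 15 min at 37° C; nitrocefin 100 μM final, absorbance at 486 nm followed 10 min. IC50 from initial hydrolysis rates versus inhibitor-free controls.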

[11] = system: E. cloacae 144200 expressing Class C P99 AmpC; assay: broth microdilution MIC, E. cloacae P99; assay type: cell-based; conditions: Fixed CAZ (ceftazidime) 4 μg/mL
Summary of the method: as §2

T1 sequence (P0A3M1 22-286): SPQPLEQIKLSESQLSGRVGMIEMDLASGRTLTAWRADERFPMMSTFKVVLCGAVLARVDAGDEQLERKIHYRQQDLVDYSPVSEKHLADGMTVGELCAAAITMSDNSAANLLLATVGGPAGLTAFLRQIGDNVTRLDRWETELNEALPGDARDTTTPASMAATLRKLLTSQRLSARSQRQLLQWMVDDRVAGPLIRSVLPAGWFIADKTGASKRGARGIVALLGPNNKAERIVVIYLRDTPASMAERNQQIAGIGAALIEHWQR

Structure (SMILES): CC(O)(O)C(=O)N[C@H]1Cc2cccc(C(=O)O)c2OB1O [Example 3, (R)-3-(2,2-Dihydroxy-propionylamino)-2-hydroxy-3,4-dihydro-2H-benzo[e][1,2]oxaborinine-8-carboxylic acid]
- IC50 [1]: 100 to 1000 nM
- MIC of exemplary compounds in presence of fixed β-lactams, P. aerug. Ps296 VIM-2 [2]: C (C represents the MIC in the presence of ≤4 g/mL of a β-lactamase inhibitor)
- MIC of exemplary compounds in presence of fixed β-lactams, K.P. 156319 KPC-3 [3]: C (C represents the MIC in the presence of ≤4 g/mL of a β-lactamase inhibitor)
- IC50 [4]: < 100 nM
- MIC of exemplary compounds in presence of fixed β-lactams, E. coli ESBL4 CTX-M-15 [5]: C (C represents the MIC in the presence of ≤4 g/mL of a β-lactamase inhibitor)
- MIC of exemplary compounds in presence of fixed β-lactams, K.P. A-1797 KPC-2 VIM-4 [6]: A (A represents an MIC of the fixed β-lactam antibiotic in the presence of >32 g/mL of a β-lactamase inhibitor)
- IC50 [7]: < 100 nM
- MIC of exemplary compounds in presence of fixed β-lactams, S. aureus MSSA-7 PC-1 [8]: C (C represents the MIC in the presence of ≤4 g/mL of a β-lactamase inhibitor)
- IC50 [9]: 100 to 1000 nM
- IC50 [10]: 1000 to 10000 nM
- MIC of exemplary compounds in presence of fixed β-lactams, E. cl. 144200 p99 AmpC [11]: C (C represents the MIC in the presence of ≤4 g/mL of a β-lactamase inhibitor)

Structure (SMILES): CS(=O)(=O)CCC(=O)N[C@H]1Cc2cccc(C(=O)O)c2OB1O [Example 21, (R)-2-Hydroxy-3-(3-methanesulfonyl-propionylamino)-3,4-dihydro-2H-benzo[e][1,2]oxaborinine-8-carboxylic acid]
- IC50 [1]: < 100 nM
- MIC of exemplary compounds in presence of fixed β-lactams, P. aerug. Ps296 VIM-2 [2]: A (A represents an MIC of the fixed β-lactam antibiotic in the presence of >32 g/mL of a β-lactamase inhibitor)
- MIC of exemplary compounds in presence of fixed β-lactams, K.P. 156319 KPC-3 [3]: C (C represents the MIC in the presence of ≤4 g/mL of a β-lactamase inhibitor)
- IC50 [4]: < 100 nM
- MIC of exemplary compounds in presence of fixed β-lactams, E. coli ESBL4 CTX-M-15 [5]: C (C represents the MIC in the presence of ≤4 g/mL of a β-lactamase inhibitor)
- MIC of exemplary compounds in presence of fixed β-lactams, K.P. A-1797 KPC-2 VIM-4 [6]: B (B represents the MIC in the presence of between 8 and 32 g/mL of a β-lactamase inhibitor)
- IC50 [7]: < 100 nM
- MIC of exemplary compounds in presence of fixed β-lactams, S. aureus MSSA-7 PC-1 [8]: C (C represents the MIC in the presence of ≤4 g/mL of a β-lactamase inhibitor)
- IC50 [9]: < 100 nM
- IC50 [10]: 1000 to 10000 nM
- MIC of exemplary compounds in presence of fixed β-lactams, E. cl. 144200 p99 AmpC [11]: C (C represents the MIC in the presence of ≤4 g/mL of a β-lactamase inhibitor)

Structure (SMILES): CCOCC(=O)N[C@H]1Cc2cccc(C(=O)O)c2OB1O [Example 25, (R)-3-(2-ethoxyacetamido)-2-hydroxy-3,4-dihydro-2H-benzo[e][1,2]oxaborinine-8-carboxylic acid]
- IC50 [1]: < 100 nM
- MIC of exemplary compounds in presence of fixed β-lactams, P. aerug. Ps296 VIM-2 [2]: C (C represents the MIC in the presence of ≤4 g/mL of a β-lactamase inhibitor)
- MIC of exemplary compounds in presence of fixed β-lactams, K.P. 156319 KPC-3 [3]: C (C represents the MIC in the presence of ≤4 g/mL of a β-lactamase inhibitor)
- IC50 [4]: < 100 nM
- MIC of exemplary compounds in presence of fixed β-lactams, E. coli ESBL4 CTX-M-15 [5]: C (C represents the MIC in the presence of ≤4 g/mL of a β-lactamase inhibitor)
- MIC of exemplary compounds in presence of fixed β-lactams, K.P. A-1797 KPC-2 VIM-4 [6]: B (B represents the MIC in the presence of between 8 and 32 g/mL of a β-lactamase inhibitor)
- IC50 [7]: < 100 nM
- MIC of exemplary compounds in presence of fixed β-lactams, S. aureus MSSA-7 PC-1 [8]: C (C represents the MIC in the presence of ≤4 g/mL of a β-lactamase inhibitor)
- IC50 [9]: < 100 nM
- IC50 [10]: 1000 to 10000 nM
- MIC of exemplary compounds in presence of fixed β-lactams, E. cl. 144200 p99 AmpC [11]: C (C represents the MIC in the presence of ≤4 g/mL of a β-lactamase inhibitor)

Structure (SMILES): N#CCC(=O)N[C@H]1Cc2cccc(C(=O)O)c2OB1O [Example 2, (R)-3-(2-Cyano-acetylamino)-2-hydroxy-3,4-dihydro-2H-benzo[e] [1,2]oxaborinine-8-carboxylic acid]
- IC50 [1]: < 100 nM
- MIC of exemplary compounds in presence of fixed β-lactams, P. aerug. Ps296 VIM-2 [2]: B (B represents the MIC in the presence of between 8 and 32 g/mL of a β-lactamase inhibitor)
- MIC of exemplary compounds in presence of fixed β-lactams, K.P. 156319 KPC-3 [3]: C (C represents the MIC in the presence of ≤4 g/mL of a β-lactamase inhibitor)
- IC50 [4]: < 100 nM
- MIC of exemplary compounds in presence of fixed β-lactams, E. coli ESBL4 CTX-M-15 [5]: C (C represents the MIC in the presence of ≤4 g/mL of a β-lactamase inhibitor)
- MIC of exemplary compounds in presence of fixed β-lactams, K.P. A-1797 KPC-2 VIM-4 [6]: C (C represents the MIC in the presence of ≤4 g/mL of a β-lactamase inhibitor)
- IC50 [7]: < 100 nM
- MIC of exemplary compounds in presence of fixed β-lactams, S. aureus MSSA-7 PC-1 [8]: C (C represents the MIC in the presence of ≤4 g/mL of a β-lactamase inhibitor)
- IC50 [9]: 100 to 1000 nM
- IC50 [10]: 1000 to 10000 nM
- MIC of exemplary compounds in presence of fixed β-lactams, E. cl. 144200 p99 AmpC [11]: C (C represents the MIC in the presence of ≤4 g/mL of a β-lactamase inhibitor)

Structure (SMILES): O=C(O)c1cccc2c1OB(O)[C@@H](NC(=O)C(Cl)CC(F)F)C2 (stereo partly drawn) [Example 5, (R)-3-(2-Chloro-4,4-difluoro-butyrylamino)-2-hydroxy-3,4-dihydro-2H-benzo[e][1,2]oxaborinine-8-carboxylic acid]
- IC50 [1]: < 100 nM
- MIC of exemplary compounds in presence of fixed β-lactams, P. aerug. Ps296 VIM-2 [2]: A (A represents an MIC of the fixed β-lactam antibiotic in the presence of >32 g/mL of a β-lactamase inhibitor)
- MIC of exemplary compounds in presence of fixed β-lactams, K.P. 156319 KPC-3 [3]: C (C represents the MIC in the presence of ≤4 g/mL of a β-lactamase inhibitor)
- IC50 [4]: < 100 nM
- MIC of exemplary compounds in presence of fixed β-lactams, E. coli ESBL4 CTX-M-15 [5]: C (C represents the MIC in the presence of ≤4 g/mL of a β-lactamase inhibitor)
- MIC of exemplary compounds in presence of fixed β-lactams, K.P. A-1797 KPC-2 VIM-4 [6]: B (B represents the MIC in the presence of between 8 and 32 g/mL of a β-lactamase inhibitor)
- IC50 [7]: < 100 nM
- MIC of exemplary compounds in presence of fixed β-lactams, S. aureus MSSA-7 PC-1 [8]: C (C represents the MIC in the presence of ≤4 g/mL of a β-lactamase inhibitor)
- IC50 [9]: < 100 nM
- IC50 [10]: 1000 to 10000 nM
- MIC of exemplary compounds in presence of fixed β-lactams, E. cl. 144200 p99 AmpC [11]: C (C represents the MIC in the presence of ≤4 g/mL of a β-lactamase inhibitor)

From patent publication US11008346B2, “Beta-lactamase inhibitors” (priority 2014, dated 2021)
